Experimental data as given in patent US10851064B2, “ACSS2 inhibitors and methods of use thereof” (METABOMED LTD., priority 2017, dated 2020).
Where “and” joins values, the source holds several entries; their conditions need not be identical. Equal entries are not always repeated.

Biological target: ACSS2 (Homo sapiens, UniProt Q9NR19)
Assay: biochemical
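Further: Cell-free human ACSS2 enzyme reaction with acetate, CoA and ATP, 90 min at 37 C, coupled to pyrophosphatase, phosphate release detected by Biomol Green absorbance at 620 nm.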
Method: ACSS2 Cell-Free Activity Assay (Cell-Free IC50)
The assay is based on a coupling reaction with Pyrophosphatase: ACSS2 is converting ATP+CoA+Acetate=>AMP+pyrophosphate+Acetyl-CoA (Ac-CoA). Pyrophosphatase converts pyrophosphate, a product of the ACSS2 reaction, to phosphate which can be detected by measuring the absorbance at 620 nm after incubation with the Biomol green reagent (Enzo life Science, BML-AK111).
Cell-free IC50 Determination:
At the end of the reaction, Biomol Green was added for 30 minutes at RT and the activity was measured by reading the absorbance at 620 nm.

Sequence of ACSS2 (Q9NR19 whole entry): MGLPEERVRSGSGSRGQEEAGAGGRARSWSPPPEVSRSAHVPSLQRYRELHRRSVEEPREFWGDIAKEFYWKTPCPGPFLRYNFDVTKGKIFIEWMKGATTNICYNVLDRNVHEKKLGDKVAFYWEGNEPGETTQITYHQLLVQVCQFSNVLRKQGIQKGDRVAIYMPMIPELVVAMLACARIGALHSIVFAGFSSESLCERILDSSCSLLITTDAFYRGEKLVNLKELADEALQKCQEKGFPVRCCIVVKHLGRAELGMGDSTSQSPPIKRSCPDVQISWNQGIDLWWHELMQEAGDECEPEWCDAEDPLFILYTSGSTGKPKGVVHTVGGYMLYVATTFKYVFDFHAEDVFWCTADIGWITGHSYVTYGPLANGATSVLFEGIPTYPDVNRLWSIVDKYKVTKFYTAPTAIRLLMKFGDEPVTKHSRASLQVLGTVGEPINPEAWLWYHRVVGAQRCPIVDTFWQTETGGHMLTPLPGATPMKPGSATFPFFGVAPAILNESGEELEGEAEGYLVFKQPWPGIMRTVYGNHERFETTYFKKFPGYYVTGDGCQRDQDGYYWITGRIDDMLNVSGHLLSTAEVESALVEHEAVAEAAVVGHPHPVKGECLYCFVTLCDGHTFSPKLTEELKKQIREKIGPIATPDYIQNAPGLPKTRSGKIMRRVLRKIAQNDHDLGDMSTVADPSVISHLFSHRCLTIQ

Structure (SMILES)	IC50
CC1=NN(c2ccc(OC(F)F)cc2)C(=O)C1C(=O)Nc1cc(C(C)(F)F)cc2c1COC2 (centres unmarked) [compound 397]	100 to 1000 nM and 6 to 100 nM
CC1=NN(c2ccncc2)C(=O)C1C(=O)Nc1cccc(-c2cnccn2)c1 (centres unmarked) [compound 232]	6 to 100 nM
COc1ccc(N2N=C(C)C(C(=O)Nc3cccc(C(C)(F)F)c3)C2=O)c(C)c1 (centres unmarked) [compound 302]	100 to 1000 nM
CC1=NN(c2ccc(OC(F)F)c(-c3ncco3)c2)C(=O)C1C(=O)Nc1cccc(C(C)(F)F)c1 (centres unmarked) [compound 355]	0.01 to 6 nM
CCCOc1ccc(N2N=C(C)C(C(=O)Nc3cccc(CC)c3)C2=O)cc1 (centres unmarked) [compound 158, N-(3-ethylphenyl)-3-methyl-5-oxo-1-(4-propoxyphenyl)-4,5-dihydro-1H-pyrazole-4-carboxamide]	6 to 100 nM
CC1=NN(c2ccc(OC3CCCC3)cc2)C(=O)C1C(=O)Nc1cccc(C(C)(F)F)c1 (centres unmarked) [compound 446]	0.01 to 6 nM
CC1=NN(c2ccccc2)C(=O)C1C(=O)Nc1cccnc1 (centres unmarked) [compound 191, 3-methyl-5-oxo-1-phenyl-N-(pyridin-3-yl)-4,5-dihydro-1H-pyrazole-4-carboxamide]	1000 to 100000 nM
CC1=NN(c2cc(Br)cc(Cc3ccc(Cl)cc3)c2)C(=O)C1C(=O)Nc1cccc(C(C)(F)F)c1 (centres unmarked) [compound 388]	0.01 to 6 nM
CC1=NN(c2ccc3ccccc3c2)C(=O)C1C(=O)Nc1ccccc1 (centres unmarked) [compound 198, 5-hydroxy-3-methyl-1-(naphthalen-2-yl)-N-phenyl-1H-pyrazole-4-carboxamide]	1000 to 100000 nM
COc1ccc(N2N=C(C)C(C(=O)Nc3cccc(C(C)(F)F)c3)C2=O)cc1-c1ccc[n+]([O-])c1 (centres unmarked) [compound 417]	100 to 1000 nM
CC1=NN(c2ccccc2)C(=O)C1C(=O)Nc1cccc(C(=O)C(F)(F)F)c1 (centres unmarked) [compound 152, 3-methyl-5-oxo-1-phenyl-N-(3-(2,2,2-trifluoroacetyl)phenyl)-4,5-dihydro-1H-pyrazole-4-carboxamide]	1000 to 100000 nM
CC1=NN(c2ccccc2)C(=O)C1C(=O)Nc1cccc(-c2cncnc2)c1 (centres unmarked) [compound 132, 3-methyl-5-oxo-1-phenyl-N-(3-(pyrimidin-5-yl)phenyl)-4,5-dihydro-1H-pyrazole-4-carboxamide]	100 to 1000 nM
CC1=NN(c2ccccc2)C(=O)C1C(=O)Nc1ccccc1 (centres unmarked) [compound 182, 3-methyl-5-oxo-N,1-diphenyl-4,5-dihydro-1H-pyrazole-4-carboxamide]	1000 to 100000 nM
CC(=O)c1ccc(NC(=O)C2C(=O)N(c3ccccc3)N=C2C)cc1 (centres unmarked) [compound 203, N-(4-acetylphenyl)-3-methyl-5-oxo-1-phenyl-4,5-dihydro-1H-pyrazole-4-carboxamide]	1000 to 100000 nM
CC1=NN(c2ccccc2)C(=O)C1C(=O)Nc1cccc(Cl)c1 (centres unmarked) [compound 210, N-(3-chlorophenyl)-3-methyl-5-oxo-1-phenyl-4,5-dihydro-1H-pyrazole-4-carboxamide]	6 to 100 nM
COc1ccc(N2N=C(C)C(C(=O)Nc3cccc(C(C)(F)F)c3)C2=O)cc1-c1cncnc1 (centres unmarked) [compound 442]	0.01 to 6 nM
CC1=NN(c2ccc(OC(F)(F)F)cc2)C(=O)C1C(=O)Nc1cc(C(C)(F)F)cs1 (centres unmarked) [compound 296]	6 to 100 nM
CC1=NN(c2ccc(OC(F)F)cc2)C(=O)C1C(=O)N(C)c1cc(C)cc(Cl)c1 (centres unmarked) [compound 393]	100 to 1000 nM
CCc1cccc(NC(=O)C2C(=O)N(c3ccc(C(F)(F)F)cc3)N=C2C)c1 (centres unmarked) [compound 127, N-(3-ethylphenyl)-3-methyl-5-oxo-1-(4-(trifluoromethyl)phenyl)-4,5-dihydro-1H-pyrazole-4-carboxamide]	6 to 100 nM
CC1=NN(c2cc(Br)cc(Cc3ccccc3Cl)c2)C(=O)C1C(=O)Nc1cccc(C(C)(F)F)c1 (centres unmarked) [compound 412]	0.01 to 6 nM
CC1=NN(c2ccccc2)C(=O)C1C(=O)Nc1cccc(C)c1 (centres unmarked) [compound 212, 3-methyl-5-oxo-1-phenyl-N-(m-tolyl)-4,5-dihydro-1H-pyrazole-4-carboxamide]	1000 to 100000 nM
COc1ccc(N2N=C(C)C(C(=O)Nc3cccc(C4COC4)c3)C2=O)cc1 (centres unmarked) [compound 354]	6 to 100 nM
CCCOc1ccc(N2N=C(C)C(C(=O)Nc3cccc(C(C)(F)F)c3)C2=O)cc1 (centres unmarked) [compound 448]	0.01 to 6 nM
CC1=NN(c2cc(Cc3ccccc3)cc(-c3ccccc3)c2)C(=O)C1C(=O)Nc1cccc(C(C)(F)F)c1 (centres unmarked) [compound 387]	0.01 to 6 nM
CC1=NN(c2cccc(C(=O)OC(C)C)c2)C(=O)C1C(=O)Nc1cccc(-c2ncco2)c1 (centres unmarked) [compound 238]	6 to 100 nM
CCc1cccc(NC(=O)C2C(=O)N(c3ccc4cccnc4c3)N=C2C)c1 (centres unmarked) [compound 267]	6 to 100 nM

Other lines, results leading:

IC50	Structure (SMILES)
0.01 to 6 nM	CC1=NN(c2ccc(B(O)O)cc2)C(=O)C1C(=O)Nc1cccc(C(C)(F)F)c1 (centres unmarked) [compound 421]
0.01 to 6 nM	CCCc1cc(-c2cccnc2)cc(N2N=C(C)C(C(=O)Nc3cccc(C(C)(F)F)c3)C2=O)c1 (centres unmarked) [compound 399]
1000 to 100000 nM	CC1=NN(c2ccccc2)C(=O)C1C(=O)NC1CCNCC1 (centres unmarked) [compound 121, 3-methyl-5-oxo-1-phenyl-N-(4-piperidyl)-4H-pyrazole-4-carboxamide]
100 to 1000 nM	CC1=NN(c2ccccc2)C(=O)C1C(=O)Nc1cccc(-c2nnc[nH]2)c1 (centres unmarked) [compound 174]
1000 to 100000 nM	CCC1=NN(c2ccccc2)C(=O)C1C(=O)Nc1cccc(CC)c1 (centres unmarked) [compound 136, 3-ethyl-N-(3-ethylphenyl)-5-oxo-1-phenyl-4,5-dihydro-1H-pyrazole-4-carboxamide]
6 to 100 nM	CC1=NN(c2cccc(S(=O)(=O)N(C)C)c2)C(=O)C1C(=O)Nc1cccc(-c2cnccn2)c1 (centres unmarked) [compound 272]
6 to 100 nM	CC1=NN(c2ccccc2)C(=O)C1C(=O)Nc1cccc(-c2cccs2)c1 (centres unmarked) [compound 101, 3-methyl-5-oxo-1-phenyl-N-(3-(thiophen-2-yl)phenyl)-4,5-dihydro-1H-pyrazole-4-carboxamide]
0.01 to 6 nM	CC1=NN(c2ccc(OC(F)F)c(-c3cncnc3)c2)C(=O)C1C(=O)Nc1cccc(C(C)(F)F)c1 (centres unmarked) [compound 449]
100 to 1000 nM	CC1=NN(c2ccccc2)C(=O)C1C(=O)Nc1cccc(CC(C)C)c1 (centres unmarked) [compound 147, N-(3-isobutylphenyl)-3-methyl-5-oxo-1-phenyl-4,5-dihydro-1H-pyrazole-4-carboxamide]
100 to 1000 nM	CC1=NN(c2ccccc2)C(=O)C1C(=O)Nc1cccc(-c2ccccc2)c1 (centres unmarked) [compound 102, N-([1,1′-biphenyl]-3-yl)-3-methyl-5-oxo-1-phenyl-4,5-dihydro-1H-pyrazole-4-carboxamide]
6 to 100 nM	COc1cccc(NC(=O)C2C(=O)N(c3ccccc3)N=C2C)c1 (centres unmarked) [compound 211, N-(3-methoxyphenyl)-3-methyl-5-oxo-1-phenyl-4,5-dihydro-1H-pyrazole-4-carboxamide]
100 to 1000 nM	CC1=NN(c2ccc(OC(F)F)cc2)C(=O)C1C(=O)Nc1ccc2cc[nH]c2c1 (centres unmarked) [compound 349]
0.01 to 6 nM	CC1=NN(c2ccc(OC(F)F)c(-c3ccncc3)c2)C(=O)C1C(=O)Nc1cccc(C(C)(F)F)c1 (centres unmarked) [compound 450]
0.01 to 6 nM	CC1=NN(c2ccc(Br)cc2)C(=O)C1C(=O)Nc1cccc(C(C)(F)F)c1 (centres unmarked) [compound 422]
> 100000 nM	CC1=NN(c2ccccc2)C(=O)C1C(=O)NC1CCOC1 (centres unmarked) [compound 106, 3-methyl-5-oxo-1-phenyl-N-(tetrahydrofuran-3-yl)-4,5-dihydro-1H-pyrazole-4-carboxamide]
